Measured values from patent publication US8519188B2, “Compounds which can be used for the treatment of cancers” (Marc-Henry Pitty, priority 2008, dated 2013).
Where a SMILES comes first, the peptide text is derived from it. [ ]: non-standard residue; d: D form. The star is where a group is joined. ξ: configuration not given here. ξV = CC(C)C(N)C(=O)O; BrAc = O=C(CBr)*

Key:
[1] = tested on: HL-60 acute promyelocytic leukaemia cell line; experiment: Cell proliferation (CellTiter 96 AQueous MTS/PMS), HL-60; type: cell-based, human; conditions: for IC50: Homo sapiens, HL-60, 72 hours of incubation, read-out: CI50 for various cell lines (nM) HL-60
Description: (§1) The effects of the compounds of the invention on the proliferation of cancer cells were studied on various human cancer cell lines of various tissue origins (MCF-7: breast cancer, MCF-7/adr adriamycin-resistant breast cancer, ARH-77: myeloma, ARH-77/Dox: doxorubicin (other name for adriamycin)-resistant myeloma, HL-60: acute promyelocytic leukaemia, HL-60/R10: doxorubicin-resistant acute promyelocytic leukaemia). The cancer cells used for this study were incubated at 37° C. in the presence of one of the compounds of the invention added to the culture medium at various concentrations.
(§2) The cancer cell lines originate from the ATCC (American Type Culture Collection) in the case of MCF-7, ARH-77 and HL-60, from Pharmacell (Paris, France) for HL-60/R10, from Oncodesign (Dijon, France) for ARH-77/Dox and from the Pitié Salpetrière Hospital for MCF-7/adr. They were cultivated in a RPMI 1640 medium containing 2 mM L-glutamine and supplemented with 10% foetal calf serum. All the cell lines were maintained in culture at 37° C. in a moist atmosphere containing 5% CO2. Cell proliferation was evaluated using the “CellTiter 96® AQueous” reagent (Promega, Wis., USA) while adhering to the manufacturer's instructions. The cells were seeded in 96-well culture plates in a proportion of from 5,000 to 10,000 cells per well in 200 μl of culture medium. After 24 hours of preincubation at 37° C., the compounds of the invention dissolved in dimethyl sulphoxide (DMSO) were added individually to each of the wells in a proportion of 2 μl per well. After 72 hours of incubation at 37° C. in a moist atmosphere containing 5% CO2, 40 μL of a MTS/PMS ([3-(4,5-dimethylthiazol-2-yl)-5-(3-carboxymethoxyphenyl)-2-(4-sulphophenyl)-2H-tetrazolium phenazine methosulphate) solution were added to each well.

[2] = tested on: HL-60/R10 doxorubicin-resistant acute promyelocytic leukaemia cell line; experiment: Cell proliferation (CellTiter 96 AQueous MTS/PMS), HL-60/R10; type: cell-based, human; conditions: for IC50: Homo sapiens, HL-60/R10, 72 hours of incubation, read-out: CI50 for various cell lines (nM) HL-60/R10
Description: as §1, §2

ARH-77 myeloma cell line = experiment: Cell proliferation (CellTiter 96 AQueous MTS/PMS), ARH-77; type: cell-based; conditions: Homo sapiens, 72 hours of incubation, read-out: CI50 for various cell lines (nM) ARH-77
Description: as §1, §2

[3] = tested on: MCF-7/adr adriamycin-resistant breast cancer cell line; experiment: Cell proliferation (CellTiter 96 AQueous MTS/PMS), MCF-7/adr; type: cell-based; conditions: for IC50: Homo sapiens, NCI/ADR-RES, MCF-7/adr, 72 hours of incubation, concentration that induces the death of 50% of the cells, read-out: CI50 for various cell lines (nM) MCF-7/adr
Description: as §1, §2

[4] = tested on: MCF-7 breast cancer cell line; experiment: Cell proliferation (CellTiter 96 AQueous MTS/PMS), MCF-7; type: cell-based; conditions: MCF7; for IC50: Homo sapiens, MCF-7, 72 hours of incubation, concentration that induces the death of 50% of the cells, read-out: CI50 for various cell lines (nM) MCF-7
Description: as §1, §2

[5] = tested on: ARH-77/Dox doxorubicin-resistant myeloma cell line; experiment: Cell proliferation (CellTiter 96 AQueous MTS/PMS), ARH-77/Dox; type: cell-based; conditions: Homo sapiens, 72 hours of incubation, read-out: CI50 for various cell lines (nM) ARH-77/Dox
Description: as §1, §2

Structure (SMILES) | IC50 [1] | IC50 [2] | IC50 (ARH-77 myeloma cell line) | IC50 [3] | IC50 [4] | IC50 [5] | further results
C#CC(=O)N(c1ccc(C(F)(F)F)cc1)C(C(=O)NC1CCCCC1)c1cccs1 (stereo not shown) [Compound 2, Propynoic Acid (cyclohexylcarbamoylthiophen-2-yl-methyl)-(4-trifluoromethylphenyl)amide] | 2080 nM | 95 nM | 92 nM | 0.7 nM | 150 nM | 6 nM | 
CC(C)C(NC(=O)CBr)C(=O)NCC(=O)O (stereo not shown) [BADLG, reference compound] (BrAc-[ξV]-Gly-OH) |  |  |  |  |  |  | cytotoxic activity (concentration at which detected) ([1]; HL60, no cytotoxic activity detected for concentrations below 10 μM, same conditions as above): ≥ 10 µM; cytotoxic activity (concentration at which detected) ([2]; HL60/R10, no cytotoxic activity detected for concentrations below 10 μM, same conditions as above): ≥ 10 µM; cytotoxic activity (concentration at which detected) ([3]; MCF7/adr, no cytotoxic activity detected for concentrations below 10 μM, same conditions as above): ≥ 10 µM; cytotoxic activity (concentration at which detected) ([4]; no cytotoxic activity detected for concentrations below 10 μM, same conditions as above): ≥ 10 µM
CC(C)c1ccc(N(C(=O)CCl)C(C(=O)NC2CCCCC2)c2ccc(OCCCN3CCN(C)CC3)cc2)c(F)c1 (stereo not shown) [Compound 192, 2-[(2-Chloro-acetyl)-(2-fluoro-4-isopropyl-phenyl)-amino]-N-cyclohexyl-2-{4-[3-(4-methyl-piperazin-1-yl)-propoxy]-phenyl}-acetamide] | 524 nM | 140 nM |  |  |  |  | 
COc1ccc(CNC(=O)C(C)(C)N(C(=O)CCl)c2ccc(F)cc2)cc1 [Compound 186, 2-[(2-Chloro-acetyl)-(4-fluoro-phenyl)-amino]-N-(4-methoxy-benzyl)-2-methyl-propionamide] | 362 nM | 78 nM |  |  |  |  | 
C#CC(=O)N(c1cccc(C(F)(F)F)c1)C(C(=O)NCc1ccccc1)c1ccc(C)s1 (stereo not shown) [Compound 21, Propynoic Acid [benzylcarbamoyl-(5-methylthiophen-2-yl)-methyl]-(3-trifluoromethylphenyl)amide] | 2020 nM | 43 nM | 60 nM |  |  | 6 nM | 
C#CC(=O)N(c1ccc(C(F)(F)F)cc1)C(C(=O)NCc1ccccc1)c1cccs1 (stereo not shown) [Compound 4, Propynoic Acid (benzylcarbamoylthiophen-2-yl-methyl)-(4-trifluoromethylphenyl)amide] | 1630 nM | 76 nM | 103 nM | 0.9 nM |  | 25 nM | 
C#CC(=O)N(c1cccc(C(F)(F)F)c1)C(C(=O)NCc1ccccc1)c1cccs1 (stereo not shown) [Compound 1, Propynoic Acid (benzylcarbamoylthiophen-2-yl-methyl)-(3-trifluoromethylphenyl)amide] | 1340 nM | 32 nM | 46 nM | 1.6 nM | 224 nM | 12 nM | 
C#CC(=O)N(c1cccc(C(F)(F)F)c1)C(C(=O)NC1CCCCC1)c1cccs1 (stereo not shown) [Compound 3, Propynoic Acid (cyclohexylcarbamoylthiophen-2-yl-methyl)-(3-trifluoromethylphenyl)amide] | 2960 nM | 46 nM | 58 nM | 2.6 nM | 275 nM | 5 nM | 
C#CC(=O)N(c1cccc(C(F)(F)F)c1)C(C(=O)NC1CCCCC1)c1cccc(F)c1F (stereo not shown) [Compound 106, Propynoic Acid [cyclohexylcarbamoyl-(2,3-difluorophenyl)methyl]-(3-trifluoromethylphenyl)amide] |  |  |  | 1 nM | 260 nM |  | 
CC(C)c1cccc(N(C(=O)CCl)C(C(=O)N2CCN(C3CCCCC3)CC2)c2cccs2)c1 (stereo not shown) [Compound 199] |  |  |  | 23 nM | 1860 nM |  | 
C#CC(=O)N(c1ccc(C(C)(C)C)cc1)C(C(=O)NC1CCCCC1)c1cccs1 (stereo not shown) [Compound 52, Propynoic Acid (4-tert-butylphenyl)(cyclohexylcarbamoylthiophen-2-yl-methyl)amide] |  |  |  | 3.5 nM | 708 nM |  | 
C#CC(=O)N(c1cccc(C#C)c1)C(C(=O)NC1CCCCC1)c1cccs1 (stereo not shown) [Compound 56, Propynoic Acid (cyclohexylcarbamoylthiophen-2-yl-methyl)-(3-ethynylphenyl)amide] |  |  |  | 1.4 nM | 640 nM |  | 
C#CC(=O)N(c1cccc(-c2ccccc2)c1)C(C(=O)NC1CCCCC1)c1cccs1 (stereo not shown) [Compound 58, Propynoic acid biphenyl-3-yl-(cyclohexylcarbamoylthiophen-2-yl-methyl)amide] |  |  |  | 2.4 nM | 580 nM |  | 
Cc1c(Cl)cccc1N(C(=O)CCl)C(C)(C)C(=O)NCc1ccc(F)cc1 [Compound 188, 2-[(2-Chloro-acetyl)-(3-chloro-2-methyl-phenyl)-amino]-N-(4-fluoro-benzyl)-2-methyl-propionamide] | 2500 nM | 176 nM |  |  |  |  | 
C#CC(=O)N(c1cccc(C(F)(F)F)c1)C(C(=O)NC1CCCCC1)c1ccc(C)s1 (stereo not shown) [Compound 19, Propynoic Acid [cyclohexylcarbamoyl-(5-methylthiophen-2-yl)-methyl]-(3-trifluoromethylphenyl)amide] |  |  |  | 1.4 nM | 340 nM |  | 
